Reference: patent US12415815B2, “Pyrido[2,3-e]oxazine derivatives as agricultural chemicals” (GLOBACHEM NV, priority 2020, dated 2025)
Values after ≈ are worked out from the molar mass of the structure shown.

What was measured:
Format in all cases: cell-based
Botrytis cinerea = assay: Fungicidal activity screen in amended agar, 96 well plates, Botrytis cinerea; conditions: Medium N agar, 5,000 spores/ml, 20, 2, 0.2 and 0.02 ppm, room temperature (18° C.), assessed after 3 to 4 days, read-out: Botrytis (fungal growth vs DMSO controls, EC50 ranking)
Protocol: (§1) Compounds were screened in 96 well plates with 10 compounds per plate. Each compound was screened using agar amended to 20, 2, 0.2 and 0.02 ppm of the test material. Proline at 50 and 10 ppm and 0.2% DMSO were used respectively as positive and negative controls. Each test concentration and standard were tested twice on a plate.
(§2) Compounds were screened against the following three fungal pathogens—Botrytis cinerea, Alternaria alternata and Zymoseptoria tritici. The agar used in the test varied depending on the pathogen with Medium N used for B. cinerea and A. alternata and 1% potato dextrose agar for Z. tritici. For each pathogen sufficient spores were added to the appropriate agar to give 1,000 spores/mL agar of A. alternata, 5,000 spores/ml agar of B. cinerea and 10,000 spores/mL agar of Z. tritici.
(§3) A ×10 stock solution in 2% DMSO was produced for each dose i.e. 200, 20, 2 and 0.2 ppm, and 10 μl of this added to the appropriate wells on the plate. An equivalent amount of 2% DMSO and Proline stock at 500 and 100 ppm were added for the controls. To each well, 90 μl of the appropriate agar spore suspension was added to give the final well concentrations outlined in the first paragraph.
(§4) Plates were incubated at room temperature (18° C.) and assessed after: • a) 3 to 4 days A. alternata and B. cinerea • b) 7 days for Z. tritici
(§5) The amount of fungal growth in each well was compared to the DMSO controls and scored according to the following key: • A—EC50<2 ppm • B—2≤EC50<20 • C—EC50≥20 • D—No activity detected at the highest dose tested • NT—Not tested

Alternaria alternata = assay: Fungicidal activity screen in amended agar, 96 well plates, Alternaria alternata; conditions: Medium N agar, 1,000 spores/mL, 20, 2, 0.2 and 0.02 ppm, room temperature (18° C.), assessed after 3 to 4 days, read-out: Alternaria (fungal growth vs DMSO controls, EC50 ranking)
Protocol: as §1, §2, §3, §4, §5

Zymoseptoria tritici = assay: Fungicidal activity screen in amended agar, 96 well plates, Zymoseptoria tritici; conditions: Zymoseptoria tritici, 168 h; 1% potato dextrose agar, 10,000 spores/mL, 20, 2, 0.2 and 0.02 ppm, room temperature (18° C.), assessed after 7 days; read-out: Zymoseptoria (fungal growth vs DMSO controls, EC50 ranking)
Protocol: as §1, §2, §3, §4, §5

| SMILES | EC50 (Botrytis cinerea) [µg/mL] | EC50 (Alternaria alternata) [µg/mL] | EC50 (Zymoseptoria tritici) [µg/mL] |
| --- | --- | --- | --- |
| COc1ccnc2c(=O)n(-c3nc4ccc(Oc5ccc(F)cc5Cl)cc4s3)c(=O)oc12 [Example 1, 3-(6-(2-Chloro-4-fluorophenoxy)benzo[d]thiazol-2-yl)-8-methoxy-2H-pyrido[2,3-e][1,3]oxazine-2,4(3H)-dione] | 2 to 20 (≈ 4.24 to 42.4 µM) | 2 to 20 (≈ 4.24 to 42.4 µM) | < 2 |
| COc1ccnc2c(=O)n(-c3nc4ccc(Oc5cncc(C(F)(F)F)c5)cc4s3)c(=O)oc12 [Example 2, 8-Methoxy-3-(6-((5-(trifluoromethyl)pyridin-3-yl)oxy)benzo[d]thiazol-2-yl)-2H-pyrido[2,3-e][1,3]oxazine-2,4(3H)-dione] | 2 to 20 (≈ 4.09 to 40.9 µM) | 2 to 20 (≈ 4.09 to 40.9 µM) | < 2 |
| COc1ccnc2c(=O)n(-c3nc4ccc(Oc5ccc(F)cc5)cc4s3)c(=O)oc12 [Example 3, 3-(6-(4-Fluorophenoxy)benzo[d]thiazol-2-yl)-8-methoxy-2H-pyrido[2,3-e][1,3]oxazine-2,4(3H)-dione] | 2 to 20 (≈ 4.57 to 45.7 µM) | 2 to 20 (≈ 4.57 to 45.7 µM) | < 2 |
| COc1ccnc2c(=O)n(-c3nc4ccc(Oc5ccccc5)cc4s3)c(=O)oc12 [Example 4, 8-Methoxy-3-(6-phenoxybenzo[d]thiazol-2-yl)-2H-pyrido[2,3-e][1,3]oxazine-2,4(3H)-dione] | 2 to 20 (≈ 4.77 to 47.7 µM) | 2 to 20 (≈ 4.77 to 47.7 µM) | < 2 |
| COc1ccnc2c(=O)n(-c3nc4ccc(Oc5ccccc5Cl)cc4s3)c(=O)oc12 [Example 5, 3-(6-(2-Chlorophenoxy)benzo[d]thiazol-2-yl)-8-methoxy-2H-pyrido[2,3-e][1,3]oxazine-2,4(3H)-dione] | 2 to 20 (≈ 4.41 to 44.1 µM) | 2 to 20 (≈ 4.41 to 44.1 µM) | < 2 |
| COc1ccnc2c(=O)n(-c3nc4ccc(Oc5ccc(F)cc5Cl)cc4s3)c(=S)oc12 [Example 6, 3-(6-(2-Chloro-4-fluorophenoxy)benzo[d]thiazol-2-yl)-8-methoxy-2-thioxo-2,3-dihydro-4H-pyrido[2,3-e][1,3]oxazin-4-one] | 2 to 20 (≈ 4.1 to 41 µM) | 2 to 20 (≈ 4.1 to 41 µM) | < 2 |
| COc1ccnc2c(=O)n(-c3nc4ccc(Oc5cncc(Cl)c5)cc4s3)c(=S)oc12 [Example 7, 3-(6-((5-Chloropyridin-3-yl)oxy)benzo[d]thiazol-2-yl)-8-methoxy-2-thioxo-2,3-dihydro-4H-pyrido[2,3-e][1,3]oxazin-4-one] | 2 to 20 (≈ 4.25 to 42.5 µM) | 2 to 20 (≈ 4.25 to 42.5 µM) | < 2 |
| COc1ccnc2c(=O)n(-c3nc4ccc(Oc5cncc(C(F)(F)F)c5)cc4s3)c(=S)oc12 [Example 8, 8-Methoxy-2-thioxo-3-(6-((5-(trifluoromethyl)pyridin-3-yl)oxy)benzo[d]thiazol-2-yl)-2,3-dihydro-4H-pyrido[2,3-e][1,3]oxazin-4-one] | 2 to 20 (≈ 3.96 to 39.6 µM) | 2 to 20 (≈ 3.96 to 39.6 µM) | < 2 |
| COc1ccnc2c(=O)n(-c3nc4ccc(Oc5cccc(Cl)c5)cc4s3)c(=S)oc12 [Example 9, 3-(6-(3-Chlorophenoxy)benzo[d]thiazol-2-yl)-8-methoxy-2-thioxo-2,3-dihydro-4H-pyrido[2,3-e][1,3]oxazin-4-one] | 2 to 20 (≈ 4.26 to 42.6 µM) | 2 to 20 (≈ 4.26 to 42.6 µM) | < 2 |
| COc1ccnc2c(=O)n(-c3nc4ccc(Oc5ccc(F)cc5)cc4s3)c(=S)oc12 [Example 10, 3-(6-(4-Fluorophenoxy)benzo[d]thiazol-2-yl)-8-methoxy-2-thioxo-2,3-dihydro-4H-pyrido[2,3-e][1,3]oxazin-4-one] | 2 to 20 (≈ 4.41 to 44.1 µM) | < 2 | < 2 |
| COc1ccnc2c(=O)n(-c3nc4ccc(Oc5cccc(F)c5)cc4s3)c(=S)oc12 [Example 11, 3-(6-(3-Fluorophenoxy)benzo[d]thiazol-2-yl)-8-methoxy-2-thioxo-2,3-dihydro-4H-pyrido[2,3-e][1,3]oxazin-4-one] | 2 to 20 (≈ 4.41 to 44.1 µM) | 2 to 20 (≈ 4.41 to 44.1 µM) | 2 to 20 (≈ 4.41 to 44.1 µM) |
| COc1ccnc2c(=O)n(-c3nc4ccc(Oc5ccccc5)cc4s3)c(=S)oc12 [Example 17, 8-Methoxy-3-(6-phenoxybenzo[d]thiazol-2-yl)-2-thioxo-2,3-dihydro-4H-pyrido[2,3-e][1,3]oxazin-4-one] | 2 to 20 (≈ 4.59 to 45.9 µM) | 2 to 20 (≈ 4.59 to 45.9 µM) | < 2 |
| COc1ccnc2c(=O)n(-c3nc4ccc(Oc5ccccc5C(F)(F)F)cc4s3)c(=S)oc12 [Example 20, 8-Methoxy-2-thioxo-3-(6-(2-(trifluoromethyl)phenoxy)benzo[d]thiazol-2-yl)-2,3-dihydro-4H-pyrido[2,3-e][1,3]oxazin-4-one] | 2 to 20 (≈ 3.97 to 39.7 µM) | 2 to 20 (≈ 3.97 to 39.7 µM) | < 2 |
| COc1ccnc2c(=O)n(-c3nc4ccc(Oc5cc(F)cc(F)c5)cc4s3)c(=S)oc12 [Example 21, 3-(6-(3,5-Difluorophenoxy)benzo[d]thiazol-2-yl)-8-methoxy-2-thioxo-2,3-dihydro-4H-pyrido[2,3-e][1,3]oxazin-4-one] | 2 to 20 (≈ 4.24 to 42.4 µM) | 2 to 20 (≈ 4.24 to 42.4 µM) | < 2 |
| COc1ccnc2c(=O)n(-c3nc4ccc(OC5CCCCC5)cc4s3)c(=S)oc12 [Example 22, 3-(6-(Cyclohexyloxy)benzo[d]thiazol-2-yl)-8-methoxy-2-thioxo-2,3-dihydro-4H-pyrido[2,3-e][1,3]oxazin-4-one] | 2 to 20 (≈ 4.53 to 45.3 µM) | ≥ 20 | 2 to 20 (≈ 4.53 to 45.3 µM) |
| COc1ccnc2c(=O)n(-c3nc4ccc(OC5CCCC5)cc4s3)c(=S)oc12 [Example 23, 3-(6-(Cyclopentyloxy)benzo[d]thiazol-2-yl)-8-methoxy-2-thioxo-2,3-dihydro-4H-pyrido[2,3-e][1,3]oxazin-4-one] | 2 to 20 (≈ 4.68 to 46.8 µM) | ≥ 20 | < 2 |
| COc1ccnc2c(=O)n(-c3nc4ccc(Sc5ccccc5)cc4s3)c(=S)oc12 [Example 27, 8-Methoxy-3-(6-(phenylthio)benzo[d]thiazol-2-yl)-2-thioxo-2,3-dihydro-4H-pyrido[2,3-e][1,3]oxazin-4-one] | ≥ 20 | 2 to 20 (≈ 4.43 to 44.3 µM) | < 2 |
| COc1ccnc2c(=O)n(-c3nc4ccc(Cc5ccc(F)cc5Cl)cc4s3)c(=S)oc12 [Example 28, 3-(6-(2-Chloro-4-fluorobenzyl)benzo[d]thiazol-2-yl)-8-methoxy-2-thioxo-2,3-dihydro-4H-pyrido[2,3-e][1,3]oxazin-4-one] | 2 to 20 (≈ 4.12 to 41.2 µM) | 2 to 20 (≈ 4.12 to 41.2 µM) | < 2 |
| COc1ccnc2c(=O)n(-c3nc4ccc(N(C)c5ccc(Cl)cc5)cc4s3)c(=S)oc12 [Example 32, 3-(6-((4-chlorophenyl)(methyl)amino)benzo[d]thiazol-2-yl)-8-methoxy-2-thioxo-2,3-dihydro-4H-pyrido[2,3-e][1,3]oxazin-4-one] |  |  | < 2 |
| COc1ccnc2c(=O)n(-c3nc4ccc(N(C)c5cncc(Cl)c5)cc4s3)c(=S)oc12 [Example 33, 3-(6-((5-chloropyridin-3-yl)(methyl)amino)benzo[d]thiazol-2-yl)-8-methoxy-2-thioxo-2,3-dihydro-4H-pyrido[2,3-e][1,3]oxazin-4-one] |  |  | 2 to 20 (≈ 4.13 to 41.3 µM) |
| COc1ccnc2c(=O)n(-c3nc4ccc(Sc5ccccc5Cl)cc4s3)c(=S)oc12 [Example 34, 3-(6-((2-chlorophenyl)thio)benzo[d]thiazol-2-yl)-8-methoxy-2-thioxo-2,3-dihydro-4H-pyrido[2,3-e][1,3]oxazin-4-one] |  |  | < 2 |
| COCCOc1ccccc1Oc1ccc2nc(-n3c(=S)oc4c(OC)ccnc4c3=O)sc2c1 [Example 37, 8-methoxy-3-(6-(2-(2-methoxyethoxy)phenoxy)benzo[d]thiazol-2-yl)-2-thioxo-2,3-dihydro-4H-pyrido[2,3-e][1,3]oxazin-4-one] |  |  | 2 to 20 (≈ 3.92 to 39.2 µM) |
| COc1ccnc2c(=O)n(-c3nc4ccc(OCC(C)C)cc4s3)c(=S)oc12 [Example 43, 3-(6-isobutoxybenzo[d]thiazol-2-yl)-8-methoxy-2-thioxo-2,3-dihydro-4H-pyrido[2,3-e][1,3]oxazin-4-one] |  |  | < 2 |
| COc1ccnc2c(=O)n(-c3nc4ccc(Oc5ccccc5OCC5CC5)cc4s3)c(=S)oc12 [Example 44, 3-(6-(2-(cyclopropylmethoxy)phenoxy)benzo[d]thiazol-2-yl)-8-methoxy-2-thioxo-2,3-dihydro-4H-pyrido[2,3-e][1,3]oxazin-4-one] |  |  | 2 to 20 (≈ 3.96 to 39.6 µM) |
| COc1ccccc1Sc1ccc2nc(-n3c(=S)oc4c(OC)ccnc4c3=O)sc2c1 [Example 45, 8-methoxy-3-(6-((2-methoxyphenyl)thio)benzo[d]thiazol-2-yl)-2-thioxo-2,3-dihydro-4H-pyrido[2,3-e][1,3] oxazin-4-one] |  |  | 2 to 20 (≈ 4.15 to 41.5 µM) |
| COc1ccnc2c(=O)n(-c3nc4ccc(Oc5ccc(C(F)(F)F)cc5)cc4s3)c(=S)oc12 [Example 46, 8-methoxy-2-thioxo-3-(6-(4-(trifluoromethyl)phenoxy)benzo[d]thiazol-2-yl)-2,3-dihydro-4H-pyrido[2,3-e][1,3]oxazin-4-one] |  |  | < 2 |
